# Measurements: ChEMBL document CHEMBL5380816, “Inclusion of Nitrofurantoin into the Realm of Cancer Chemotherapy via Biology-Oriented Synthesis and Drug Repurposing” (J Med Chem, 2023)
# Activity calls are given as the source filed them. The rule behind the calls is not given here.
# Columns and labels:
# MCF7 [1] = experiment: Induction of DNA damage in human MCF7 cells assessed as increase in p53 expression at 5 uM incubated for 24 hrs by Western blot analysis; format: functional, cell-based
# MCF7 [2] = experiment: Anticancer activity against human MCF7 cells assessed as cell shrinkage incubated at 0.11 uM for 72 hrs by phase contrast inverted microscopic analysis; format: functional, cell-based
# HeLa [3] = experiment: Induction of apoptosis in human HeLa cells assessed as total apoptotic cells incubated at 0.11 uM for 72 hrs by annexin V-FITC based propidium iodide dual staining assay (reference value: 0 +/- 0.035%); format: functional
# HepG2 [4] = experiment: Induction of apoptosis in human HepG2 cells assessed as caspase3/7 activation at 0.11 uM using caspase-glo 3/7 as substrate relative to control; format: functional
# dsDNA = experiment: Induction of damage in dsDNA (unknown origin) assessed as disrupted by DNA by measuring decrease in fluorescence intensity at 100 uM by EvaGreen based fluorescence plate reader analysis; format: nucleic-acid assay; conditions: time <= 160.0 min, TDE = time-dependent effect
# Caco-2 [5] = experiment: Induction of apoptosis in human Caco-2 cells assessed as total apoptotic cells incubated at 0.11 uM for 72 hrs by annexin V-FITC based propidium iodide dual staining assay (reference value: 0.04 +/- 0.005%); format: functional
# HepG2 [6] = experiment: Induction of apoptosis in human HepG2 cells assessed as necrotic cells incubated at 0.11 uM for 72 hrs by annexin V-FITC based propidium iodide dual staining assay (reference value: 0.33%); format: functional
# Calf thymus DNA = experiment: Induction of calf thymus DNA damage assessed as disrupted by DNA by measuring decrease in fluorescence intensity by EvaGreen based fluorescence plate reader analysis; format: nucleic-acid assay; conditions: Bos taurus; dose <= 500.0 µM
# HepG2 [7] = experiment: Induction of apoptosis in human HepG2 cells assessed as total apoptotic cells incubated at 0.11 uM for 72 hrs by annexin V-FITC based propidium iodide dual staining assay (reference value: 0.99 +/- 0.02%); format: functional
# Caco-2 [8] = experiment: Anticancer activity against human Caco-2 cells assessed as losing contact with neighbouring cells incubated at 0.11 uM for 72 hrs by phase contrast inverted microscopic analysis; format: functional, cell-based
# Caco-2 [9] = experiment: Anticancer activity against human Caco-2 cells assessed as cell shrinkage incubated at 0.11 uM for 72 hrs by phase contrast inverted microscopic analysis; format: functional, cell-based
# MCF7 [10] = experiment: Anticancer activity against human MCF7 cells assessed as round cells incubated at 0.11 uM for 72 hrs by phase contrast inverted microscopic analysis; format: functional, cell-based
# Caco-2 [11] = experiment: Induction of oxidative stress in human Caco-2 cells assessed as cell death by measuring redox alteration fluorescence incubated at 0.11 uM for 72 hrs in presence of dihydro dichlorofluorescein diacetate by DCFH-DA based flow cytometric analysis relative to control; format: functional
# MCF7 [12] = experiment: Induction of apoptosis in human MCF7 cells assessed as early apoptotic cells incubated at 0.11 uM for 72 hrs by annexin V-FITC based propidium iodide dual staining assay (reference value: 0.06%); format: functional
# HepG2 [13] = experiment: Induction of apoptosis in human HepG2 cells assessed as viable cells by measuring green uniform patch incubated at 0.017 uM for 72 hrs by acridine orange-ethidium bromide dual staining based fluorescence microscopic analysis; format: functional, cell-based
# HeLa [14] = experiment: Induction of apoptosis in human HeLa cells assessed as viable cells by measuring green uniform patch incubated at 0.017 uM for 72 hrs by acridine orange-ethidium bromide dual staining based fluorescence microscopic analysis; format: functional, cell-based
# HepG2 [15] = experiment: Induction of apoptosis in human HepG2 cells assessed as early apoptotic cells incubated at 0.017 uM for 72 hrs by annexin V-FITC based propidium iodide dual staining assay (reference value: 1.74%); format: functional
# Caco-2 [16] = experiment: Induction of apoptosis in human Caco-2 cells assessed as early apoptotic cells incubated at 0.017 uM for 72 hrs by annexin V-FITC based propidium iodide dual staining assay (reference value: 0.07%); format: functional
# Caco-2 [17] = experiment: Induction of oxidative stress in human Caco-2 cells assessed as cell death by measuring redox alteration fluorescence incubated at 0.097 uM for 72 hrs in presence of dihydro dichlorofluorescein diacetate by DCFH-DA based flow cytometric analysis relative to control; format: functional
# Caco-2 [18] = experiment: Induction of apoptosis in human Caco-2 cells assessed as viable cells incubated at 0.098 uM for 72 hrs by annexin V-FITC based propidium iodide dual staining assay (reference value: 99.89%); format: functional; conditions: read-out: Activity
# Caco-2 [19] = experiment: Induction of oxidative stress in human Caco-2 cells assessed as cell death by measuring redox alteration fluorescence incubated at 0.027 uM for 72 hrs in presence of dihydro dichlorofluorescein diacetate by DCFH-DA based flow cytometric analysis relative to control; format: functional
# MCF7 [20] = experiment: Induction of apoptosis in human MCF7 cells assessed as necrotic cells incubated at 0.098 uM for 72 hrs by annexin V-FITC based propidium iodide dual staining assay (reference value: 0.03%); format: functional
# HeLa [21] = experiment: Anticancer activity against human HeLa cells assessed as cell shrinkage incubated at 0.098uM for 72 hrs by phase contrast inverted microscopic analysis; format: functional, cell-based
# HepG2 [22] = experiment: Induction of oxidative stress in human HepG2 cells assessed as cell death by measuring redox alteration fluorescence incubated at 0.097 uM for 72 hrs in presence of dihydro dichlorofluorescein diacetate by DCFH-DA based flow cytometric analysis relative to control; format: functional
# MCF7 [23] = experiment: Anticancer activity against human MCF7 cells assessed as cell shrinkage incubated at 0.098uM for 72 hrs by phase contrast inverted microscopic analysis; format: functional, cell-based
# MCF7 [24] = experiment: Anticancer activity against human MCF7 cells assessed as smaller cells incubated at 0.098uM for 72 hrs by phase contrast inverted microscopic analysis; format: functional, cell-based
# HepG2 [25] = experiment: Induction of apoptosis in human HepG2 cells assessed as viable cells incubated at 0.097 uM for 72 hrs by annexin V-FITC based propidium iodide dual staining assay (reference value: 97.27%); format: functional; conditions: read-out: Activity
# HeLa [26] = experiment: Induction of apoptosis in human HeLa cells assessed as early apoptotic cells incubated at 0.097 uM for 72 hrs by annexin V-FITC based propidium iodide dual staining assay (reference value: 2.77%); format: functional
# MCF7 [27] = experiment: Induction of apoptosis in human MCF7 cells assessed as late apoptotic cells incubated at 0.097 uM for 72 hrs by annexin V-FITC based propidium iodide dual staining assay (reference value: 0.01%); format: functional
# MCF7 [28] = experiment: Induction of apoptosis in human MCF7 cells assessed as early apoptotic cells incubated at 0.097 uM for 72 hrs by annexin V-FITC based propidium iodide dual staining assay (reference value: 0.06%); format: functional
# HepG2 [29] = experiment: Anticancer activity against human HepG2 cells assessed as smaller cells incubated at 0.097uM for 72 hrs by phase contrast inverted microscopic analysis; format: functional, cell-based
# HeLa [30] = experiment: Anticancer activity against human HeLa cells assessed as losing contact with neighbouring cells incubated at 0.097uM for 72 hrs by phase contrast inverted microscopic analysis; format: functional, cell-based
# HeLa [31] = experiment: Induction of apoptosis in human HeLa cells assessed as caspase3/7 activation at 0.097 uM using caspase-glo 3/7 as substrate relative to control; format: functional
# MCF7 [32] = experiment: Anticancer activity against human MCF7 cells assessed as smaller cells incubated at 0.097uM for 72 hrs by phase contrast inverted microscopic analysis; format: functional, cell-based
# MCF7 [33] = experiment: Anticancer activity against human MCF7 cells assessed as round cells incubated at 0.097uM for 72 hrs by phase contrast inverted microscopic analysis; format: functional, cell-based
smiles,measurement,setting,value
C#CCN1C(=O)CN(/N=C/c2ccc([N+](=O)[O-])o2)C1=O,Activity,MCF7 [1],Active
same,Activity,MCF7 [2],Active
same,Activity,HeLa [3],25.17%
same,Activity,HepG2 [4],63%
same,Activity,dsDNA,Tde
same,Activity,Caco-2 [5],45.81%
same,Activity,HepG2 [6],3.66%
same,Activity,Calf thymus DNA,Dose-Dependent Effect
same,Activity,HepG2 [7],63.15%
same,Activity,Caco-2 [8],Active
same,Activity,Caco-2 [9],Active
same,Activity,MCF7 [10],Active
same,Activity,Caco-2 [11],45.56%
same,Activity,MCF7 [12],7.55%
O=c1[nH]cc(F)c(=O)[nH]1 [FLUOROURACIL],Activity,HepG2 [13],Active
same,Activity,HeLa [14],Active
same,Activity,HepG2 [15],7.69%
same,Activity,Caco-2 [16],6.74%
same,Activity,Caco-2 [17],4.78%
O=C(CN1C(=O)CN(/N=C/c2ccc([N+](=O)[O-])o2)C1=O)c1ccc(Cl)cc1,viability at 0.098 µM,Caco-2 [18],60.6%
same,Activity,Caco-2 [19],54.7%
same,Activity,MCF7 [20],3.18%
same,Activity,HeLa [21],Active
same,Activity,HepG2 [22],38.99%
same,Activity,MCF7 [23],Active
same,Activity,MCF7 [24],Active
NS(=O)(=O)c1ccc(-n2cc(CN3C(=O)CN(/N=C/c4ccc([N+](=O)[O-])o4)C3=O)nn2)cc1,viability at 0.097 µM,HepG2 [25],78.9%
same,Activity,HeLa [26],17.31%
same,Activity,MCF7 [27],60.48%
same,Activity,MCF7 [28],4.85%
same,Activity,HepG2 [29],Active
same,Activity,HeLa [30],Active
same,Activity,HeLa [31],58%
same,Activity,MCF7 [32],Active
same,Activity,MCF7 [33],Active
